In general, IC50 refers to the point on the concentration scale where inhibition reaches its midpoint.

In brackets after ≈: the same amount, converted by molar mass.

The test relates to Toxoplasma gondii RH strain. Nature of the test: [3H]-uracil incorporation assay in VERO host cells.

In the case of `Nc1ccc(S(=O)(=O)Nc2ncccn2)cc1` [Sulfadiazine, reference compound], the “Proliferation of Tg ± SD” value is, setting by setting: (1 µg/ml) 104.59 ±4.12%; (5 µg/ml) 96.71 ±3.85%; (25 µg/ml) 78.58 ±4.67%; (50 µg/ml) 67.99 ±7.73%; (125 µg/ml) 65.58 ±4.80%; (250 µg/ml) 61.79 ±3.13%. The “Proliferation of Tg ± SD” value runs as follows: (500 µg/ml) 56.68 ±3.64%; (1250 µg/ml) 45.17 ±1.03%; (2500 µg/ml) 45.36 ±0.58%. The IC50 (Toxoplasma gondii, Vero, read-out: IC50 anti-Tg) came out at 936 µg/mL (≈ 3.74 mM).

The values are drawn from PMC6133161, “Thiazoles with cyclopropyl fragment as antifungal, anticonvulsant, and anti-Toxoplasma gondii agents: synthesis, toxicity evaluation, and molecular docking study” (Medicinal Chemistry Research, 2018).
